Laboratory results published in BigSolDB 2.1.

CC(=O)N1CCC[C@H]1C(=O)O
solubility (mole fraction)
Conditions	283.15 K	288.15 K	293.15 K	298.15 K	303.15 K	313.15 K	323.15 K
in 1,4-dioxane	–	0.0237	0.0291	–	0.0416	0.0673	0.13
in 2-butanone	0.0113	–	0.0161	–	0.0237	0.0339	0.0553
in acetone	0.0158	–	0.0247	–	0.0348	0.0484	0.0673
in acetonitrile	0.0159	–	0.0335	–	0.0558	0.131	0.255
in dichloromethane	0.0336	0.0448	0.0609	0.0785	0.0974	–	–
in ethanol	0.0754	–	0.111	–	0.156	0.219	0.278
in ethyl acetate	0.00368	–	0.00634	–	0.0096	0.0133	0.0201
in isobutanol	0.0448	–	0.0643	–	0.106	0.146	0.2
in isopropanol	0.0448	–	0.0732	–	0.099	0.143	0.177
in methanol	0.122	–	0.166	–	0.21	0.291	0.406
in methyl acetate	0.00602	–	0.00997	–	0.0147	0.0213	0.0322
in n-butanol	0.0412	–	0.059	–	0.0877	0.133	0.199
in n-pentanol	0.0377	–	0.0532	–	0.075	0.111	0.158
in n-propanol	0.0961	–	0.14	–	0.195	0.267	0.334
in sec-butanol	0.0429	–	0.062	–	0.0915	0.132	0.189
in water	0.0127	–	0.0188	–	0.0269	0.042	0.0738
